# Reference: patent US12019083B2, “Compound distribution in microfluidic devices” (EMULATE, Inc., priority 2019, dated 2024)
# Entries after “also recorded” stand apart in the source; their conditions may differ.
# Assays:
# [1] = Time-dependent material absorption test in vials, SEBS; type: physicochemical; settings: for absorption into SEBS: recovered concentration compared to dosing concentration
# Description: (§1) A method for ascertaining the absorption of a specific small-molecule into a polymer was developed. The output of this method are the fundamental parameters that fully define the absorption of a specific compound into the material tested; specifically, the diffusivity and partition coefficient are ascertained. […] The steps for ascertaining this absorption is as follows: • 1. Dissolve the small molecule in an aqueous phase (medium) and incubate the solution (30) with the tested material (31), such as in a vial (29). The incubation should be long enough so that diffusion is not limiting absorption and the transport into the material is at equilibrium with the transport of the compound out of the material and into the aqueous phase. • 2. Sample media from the vials at a number of time points. • 3. Measure the concentration of the small molecule remaining in the aqueous phase (30) using a mass spectrometer, plate reader, etc. from the media sampled. • 4. Curve-fit the measured data to quantify the absorption and diffusion parameters.
# (§2) Each experiment includes a number of controls and test conditions. Using multiple controls and test conditions allows absorption to the vial and well-plate to be characterized, as well as absorption versus adsorption to the tested material, as well as yielding the time-dependent nature of absorption into the material. […] The goals of the experiments are to directly quantify partitioning of the compound, or compound loss at equilibrium (kinetics), and to directly quantify diffusion of the compound, or time-dependent compound loss (dynamics).
# (§3) Single time point experiments are only capable of extracting kinetics, not dynamics. Time-dependent studies capture not only equilibrium endpoints (K), but also time-dependent changes/dynamics (D). One-dimensional computational models are used to fit experimental results of time-dependent studies. […] Once the particular curve is known, the parameters which defined that curve are taken as the fundamental parameters defining the material-compound absorptive interaction.
# [2] = recovered concentration compared to dosing concentration
# Description: Curve-fit the measured data to quantify the absorption and diffusion parameters.
# [3] = Time-dependent material absorption test in vials, PDMS; type: physicochemical; settings: for absorption into PDMS: recovered concentration compared to dosing concentration
# Description: as §1, §2, §3
# [4] = Flow absorption study in PDMS microfluidic device / compound distribution kit; type: physicochemical
# Description: An exemplary method may follow the method of an intended experiment or study. As an example, the compound distribution kit may be used with microfluidic devices. An exemplary method for use with microfluidic devices may follow an intended study method with the following changes: no coatings, no cell seeding, and reduced number of compound doses. In one embodiment, there may not be a need to perform coatings on the microfluidic device that are related to biological aspects of the experiment. Some coatings, such as those that change the chemistry of the microfluidic device material makeup, may need to be done, especially if they may affect compound absorbency. It one embodiment, coatings are done with the compound distribution kit at the discretion of the user. In one embodiment, cell seeding is not needed. In one embodiment, if the intended-study protocol compares several concentrations of a test compound, the absorption control experiment need only be run for one of these concentrations. In one embodiment, it is recommended to use the highest compound concentration planned for the intended study, in order to maximize quantification (e.g. LCMS) sensitivity. However, a lower concentration of test compound may be selected if there are concerns about the compound's solubility limits or it crashing out of solution at the higher concentration. Crashing out of solution is when the concentration of a solute in a solution reaches a point where the solute precipitates. In one embodiment, the compound is dosed for the same duration, at the same flow rate, in the same microfluidic channel(s) as per the intended protocol, experiment or study. That is, if the intended study specifies dosing only in a first channel, with no compound in a second channel, then the same method would be applied during the use of the compound distribution kit. In one embodiment, media and solution should be the same during use of the compound distribution kit as in the intended study. In one embodiment, the same media or solution, as well as any additives or supplements, as medium composition and additives can interact with test compounds (e.g. protein binding). In one embodiment, media or solutions should also be equilibrated in the same manner, such as degassing and preheating. In one embodiment, effluent samples taken during use of the compound distribution kit should be collected at the same time as the intended study. Compound distribution can be a highly dynamic process, and as such matching time points may be able to ensure that the results of the compound distribution kit correspond closely to the intended study. […]
# [5] = Second round absorption study: Parylene coated SEBS and E140 compared with glass, COP and control solution; type: physicochemical
# Description: Two quantitative studies were run on Parylene coated materials in order to assess its effectiveness in minimizing small molecule absorbency. In the first study Parylene coated SEBS and Parylene coated PDMS were both exposed to Rhodamine B and Coumarin. In the second study the absorption of Parylene coated SEBS and Parylene coated […] were compared to the absorption of known low-absorbing materials, such as glass and COP. In the second round of absorption studies, after parylene-coating process optimization, the absorption of Parylene coated SEBS and Parylene coated […] were compared to both the absorption of known low-absorbing materials, such as glass and COP, and a control solution of the drug not in contact with a material. The coated materials were exposed to a solution carrying a known concentration of the drug, Coumarin. The solution was tested three times to quantify the remaining concentration of the Coumarin, before exposure to the material, at 22 hours and at 92 hours. […] SEBS absorbed more of the compound than […].
# [6] = First round absorption study on Parylene coated SEBS and PDMS gaskets (plate reader); type: physicochemical; settings: coating thickness 2 μm and 8 μm; exposure 0, 14, 40 and 72 hours
# Description: Two quantitative studies were run on Parylene coated materials in order to assess its effectiveness in minimizing small molecule absorbency. In the first study Parylene coated SEBS and Parylene coated PDMS were both exposed to Rhodamine B and Coumarin. In the second study the absorption of Parylene coated SEBS and Parylene coated E140 were compared to the absorption of known low-absorbing materials, such as glass and COP.
# In the first round of absorption studies, SEBS and PDMS gaskets were coated with Parylene at two thicknesses: 2 μm and 8 μm. Parylene-coated gaskets were exposed to Rhodamine B and Coumarin for 0, 14, 40 and 72 hours. The remaining concentration of Rhodamine B and Coumarin in the exposure solution were measured on a plate reader. Each condition was tested on two gaskets. Limited replicates were available due to the number of conditions run. This “shotgun approach” was used in order to try many coating conditions and quickly determine the best options. […] FIG. 33B depicts the fraction of Rhodamine B recovered from the solutions for coatings of varying thickness on two materials known to absorb. […] One observation from the experiment was that the Parylene may crack, leading to gasket absorption. Another observation from the experiment was that Parylene adhesion to the PDMS and SEBS was poor, resulting in easy removal of Parylene. […]
# [7] = Flow study of microfluidic device in fluidic communication with perfusion manifold assembly; type: physicochemical
# Description: FIGS. 98A and 98B show a comparison between a computational (COMSOL) model results and actual experimental results for cellular exposure ranges of the small-molecule compound Coumarin. […] For this experiment the microfluidic device was in fluidic communication with a perfusion manifold assembly. […] FIGS. 99A and 99B show a comparison between a computational (COMSOL) model results and actual experimental results for cellular exposure ranges of the small-molecule compound Coumarin. […] For this experiment the microfluidic device was in fluidic communication with a perfusion manifold assembly.
# [8] = Fluorescent molecule absorption in perfusion manifold assemblies under flow; type: physicochemical; settings: 30 μL/hr for 38 hours
# Description: Fluorescent molecule Rhodamine B (a fluorescent molecule that is also moderately absorbing into PDMS and SEBS) was dissolved in a buffer, flowed through a perfusion manifold assembly (14) and absorbing microfluidic device (12) fabricated out of PDMS at 30 μL/hr for 38 hours on a culture module. The perfusion manifold assemblies (14) were rinsed with buffer not containing the fluorescent molecule at 200 μL/hr for an hour before the start of the experiment.
# Following the experiment, the perfusion manifold assemblies (14) were disassembled and the vias (35) of the capping, gasketing and backplane assembly or fluidic layer assembly (34), as well as the perfusion manifold assembly (14) resistors (27), were imaged with fluorescent microscopy. FIG. 25A depicts the resulting fluorescence in the fluidic layer assembly (34) of an absorbing perfusion manifold assembly (14) comprising a combined gasketing and capping layer (26). FIG. 25B depicts the resulting fluorescence on one aspect the invention described herein, a low-absorbing perfusion manifold assembly comprising both a low-absorbing capping and low-absorbing gasketing layer. In the embodiment of the perfusion manifold assembly (14) used in the experiment, the capping layer was fabricated from COP and the gasketing layer was fabricated out of SEBS coated with Parylene. Bright white colors in FIGS. 25A and 25B correlate to greater degree of absorption of the fluorescent molecule Rhodamine B.
# [9] = Fluorescent imaging of Parylene-coated gaskets exposed to Rhodamine B; type: physicochemical
# Description: Parylene-coated PDMS gaskets were exposed to the fluorescent molecule Rhodamine B and fluorescently imaged. […] However, the absorption is primarily localized to areas with sharp corners. […] Parylene-coated SEBS gaskets were exposed to the fluorescent molecule Rhodamine B and fluorescently imaged as well. […] However, the absorption is primarily localized to areas with sharp corners. Some absorption can be seen inside of the via, but it was minimal, difficult to visualize, and quite possibly an optical artifact unrelated to absorption.
# [10] = tested before exposure, at 22 hours and at 92 hours
structure (smiles),measurement,setting,value
CCc1cccc2cc(C(O)CNC(C)(C)C)oc12 (stereo not shown) [Bufuralol],SEBS partition value (K),[1],4.77
same,absorption into SEBS,[1],absorbed somewhat
same,"absorption into glass, polypropylene, polystyrene or COP",[2],did not absorb significantly
same,PDMS partition value (K),[3],greater than 216
same,recovered concentration from the PDMS experiments,[3]; LCMS,below the lower limit of detection
same,absorption into PDMS,[3],absorbed almost entirely
"C=C(C)[C@@H]1CCC(C)=C[C@H]1c1c(O)cc(CCCCC)cc1O [CBD, cannabidiol]",measured outlet concentrations of the compound,[4]; microfluidic device fabricated entirely from PDMS,0
same,absorption or loss of compound in microfluidic device fabricated from entirely PDMS,"[4]; several flow rates, even at the highest flow rate",complete/total absorption or loss of compound
O=c1ccc2ccccc2o1 [Coumarin],absorption into materials coated with Parylene,"[5]; Parylene coated SEBS and E140, 22 and 92 hours",do not absorb significant amounts
same,absorption into glass and COP compared to control solution,[5]; [10],did not absorb
same,absorption into uncoated SEBS and E140,[5]; [10],both absorb; also recorded: SEBS absorbed more of the compound than E140
same,absorption by Parylene coated PDMS and SEBS,[6],some Coumarin was absorbed
same,absorption into SEBS of the perfusion manifold assembly,[7],especially susceptible to absorption
same,effect of flow rate on absorption into PDMS,"[4]; 60 μL/hr versus 150 μL/hr, bottom channel sampled",less compound is absorbed into PDMS at faster flow rates
CN1C(=O)CN=C(c2ccccc2)c2cc(Cl)ccc21 [Diazepam],fraction of Diazepam absorbed by PDMS,[3]; by hour 12 of contact with PDMS,⅔ and two thirds
Cc1ncc2n1-c1ccc(Cl)cc1C(c1ccccc1F)=NC2 [Midazolam],SEBS partition value (K),[1],4.05
same,absorption into SEBS,[1],absorbed somewhat
same,"absorption into glass, polypropylene, polystyrene or COP",[2],did not absorb significantly
same,PDMS partition value (K),[3],201
same,absorption into PDMS,[3],absorbed significantly
CCN(CC)c1ccc2c(-c3ccccc3C(=O)O)c3ccc(=[N+](CC)CC)cc-3oc2c1 [Rhodamine B],absorption by Parylene coated PDMS and SEBS,[6],minimal Rhodamine B was absorbed
same,absorption in perfusion manifold assemblies with COP capping layer and Parylene coated SEBS gasketing layer,[8],did not absorb a significant amount
same,absorption in perfusion manifold assembly with COP capping layer and non-coated SEBS gasketing layer,[8],absorbed the fluorescent molecule
same,absorption in perfusion manifold assembly with combined gasketing and capping layer,[8],absorbed the fluorescent molecule
same,absorption in resistors capped with COP,[8],very little
same,absorption in resistors capped with SEBS,[8],relatively high extent
same,rate and extent of absorption,[4]; flow study outlet concentrations,"lower rate of absorption, but higher extent of absorption"
same,absorption in Parylene-coated SEBS gaskets (microscopy),[9],some minimal absorption is present
same,absorption within the microfluidic device ports of Parylene-coated PDMS gaskets,[9]; ports leading into the channels,No absorption was seen
same,absorption in Parylene-coated PDMS gaskets (microscopy),[9]; whole gasket,some absorption is present but localized to areas that might not have been fully coated
CN(C)CCC=C1c2ccccc2CCc2ccccc21 [amitriptyline],absorption into PDMS,[3],absorb into PDMS
